Structures are written as SMILES. pIC50: −log10 of the molar value.

One may read the pIC50 as the IC50 on a negative log10 scale, so that one unit is a factor of ten. A lower pIC50 goes with a high IC50.

In this assay the target is KRAS G12C (Homo sapiens, UniProt P01116, G12C). Kind of assay: KRAS G12C nucleotide exchange assay (SOS1-mediated, mant-GDP fluorescence). The class given is biochemical. The arrangement: KRas(1-169) G12C protein. As to conditions: 15 min pre-incubation. Here is the method: Assay 1: KRAS G12C Nucleotide Exchange Assay
KRAS G12C, sequence (P01116 1-169 isoform P01116-2 G12C): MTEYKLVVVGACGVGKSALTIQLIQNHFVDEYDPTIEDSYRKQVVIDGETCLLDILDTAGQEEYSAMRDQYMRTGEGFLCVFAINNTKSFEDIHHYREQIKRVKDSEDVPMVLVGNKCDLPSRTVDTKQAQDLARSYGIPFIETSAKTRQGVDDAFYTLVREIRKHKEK
1×Loading buffer: 20 mM HEPES, pH 7.5, 50 mM NaCl, 0.5 mM MgCl2, 1 mM DTT, 5 mM EDTA
1×Equilibration buffer: 20 mM HEPES, pH 7.5, 150 mM NaCl, 1 mM MgCl2, 1 mM DTT
1×Assay buffer: 20 mM HEPES, pH 7.5, 150 mM NaCl, 1 mM MgCl2, 0.01% Tween-20, 1 mM DTT
2. Load Mant GDP to KRAS G12C:
a. A mixed solution of 100 µL mant GDP and KRAS G12C was prepared with 1×loading buffer: 60 um KRAS G12C, 600 um […], incubated at room temperature for 60 minutes, and the reaction was carried out in dark conditions.
b. Add 1 uL 1 m MgCl2 (final concentration 10 mm) to stop the reaction, mix the solution upside down in the centrifuge tube, centrifugate for 3-5 seconds, and incubate at room temperature for 30 minutes.
c. At the same time of incubation for 30 minutes, balance nap-5 column with 10 ml ix equipment buffer until no liquid drops.
d. Drop the mixed solution of 100 uL mant GDP and KRAS G12C into the center of nap-5 column. After the sample completely enters nap-5 column, add 400 µL 1× equipment buffer until no liquid drops.
e. Add 500 ul 1× equipment buffer for elution and collect eluant.
f. Determination of KRAS G12C mant GDP with Bradford protein quantitative Kit.
3. Nucleotide Exchange Experiment:
a. Transfer 50 NL DMSO/compound to 384 well plate with echo550.
b. 10 uL enzyme mix was added into 384 pore plate and incubated with DMSO/compound for 15 min.
c. Initial reaction with 10 µL Sos1/GTP mix.
d. Immediately after reaction, read ex360/em440 fluorescence value in kinetic mode with Nivo.
a. Use Graphpad software to process data and draw pictures.
b. K value is obtained in Graphpad software by fitting One phase experimental deck model.
c. Z′=1-3*(SdKmax+SdKmin)/(AveKmax−AveKmin)
d. In % is calculated by the following formula:
Inh%=(Kmax−Ksample)/(Kmax−Kmin)*100
`C=CC(=O)N1CCN(c2nc(OC[C@@H]3CCCN3C)nc3c(=O)n(-c4c(C)ccc5[nH]ncc45)c(C)nc23)CC1` [Compound 22, (S)-8-(4-acryloylpiperazin-1-yl)-2-methyl-3-(5-methyl-1H-indazol-4-yl)-6-((1-methylpyrrolidin-2-yl)methoxy)pyrimido[5,4-d]pyrimidin-4(3H)-one] showed a pIC50 of 4.64. The same measure for `C=CC(=O)N1C[C@H](C)N(c2nc(OC[C@@H]3CCCN3C)nc3c(=O)n(-c4cccc5cccc(Cl)c45)c(C)nc23)C[C@@H]1C` [Compound 8, 8-((2S,5S)-4-acryloyl-2,5-dimethylpiperazin-1-yl)-3-(8-chloronaphthalen-1-yl)-2-methyl-6-(((S)-1-methylpyrrolidin-2-yl)methoxy)pyrimido[5,4-d]pyrimidin-4(3H)-one]: 4.22.

`C=CC(=O)N1CCN(c2nc(OC[C@@H]3CCCN3C)nc3c(=O)n(-c4cccc5cccc(C)c45)c(C)nc23)CC1` [Compound 6, (S)-8-(4-acryloylpiperazin-1-yl)-2-methyl-3-(8-methylnaphthalen-1-yl)-6-((1-methylpyrrolidin-2-yl)methoxy)pyrimido[5,4-d]pyrimidin-4(3H)-one] had a pIC50 of 5.75. The same measure for `C=CC(=O)N1CCN(c2nc(OC[C@@H]3CCCN3C)nc3c(=O)n(-c4cccc5ccccc45)c(-c4ccccc4)nc23)CC1` [Compound 18, (S)-8-(4-acryloylpiperazin-1-yl)-6-((1-methylpyrrolidin-2-yl)methoxy)-3-(naphthalen-1-yl)-2-phenylpyrimido[5,4-d]pyrimidin-4(3H)-one]: 5.00; for `C=CC(=O)N1CCN(c2nc(OC[C@@H]3CCCN3C)nc3c(=O)n(-c4cccc5cccc(Cl)c45)c(CC)nc23)C[C@@H]1CC#N` [Compound 13, 2-((S)-1-acryloyl-4-(7-(8-chloronaphthalen-1-yl)-6-ethyl-2-(((S)-1-methylpyrrolidin-2-yl)methoxy)-8-oxo-7,8-dihydropyrimido[5,4-d]pyrimidin-4-yl)piperazin-2-yl)acetonitrile]: 6.41; for `C=CC(=O)N1CCN(c2nc(OC[C@@H]3CCCN3C)nc3c(=O)n(-c4cccc5cccc(C)c45)c(C)nc23)C[C@@H]1CC#N` [Compound 7, 2-((S)-1-acryloyl-4-(6-methyl-7-(8-methylnaphthalen-1-yl)-2-(((S)-1-methylpyrrolidin-2-yl)methoxy)-8-oxo-7,8-dihydropyrimido[5,4-d]pyrimidin-4-yl)piperazin-2-yl)acetonitrile]: 6.41. The same measure for `C=CC(=O)N1CCN(c2nc(OC[C@@H]3CCCN3C)nc3c(=O)n(-c4cccc5cccc(Cl)c45)c(C)nc23)CC1` [Compound 3, (S)-8-(4-acryloylpiperazin-1-yl)-3-(8-chloronaphthalen-1-yl)-2-methyl-6-((1-methylpyrrolidin-2-yl)methoxy)pyrimido[5,4-d]pyrimidin-4(3H)-one]: 5.08; for `C=CC(=O)N1CCN(c2nc(OC[C@@H]3CCCN3C)nc3c(=O)n(-c4cccc5ccccc45)cnc23)CC1` [Compound 5, (S)-8-(4-acryloylpiperazin-1-yl)-6-((1-methylpyrrolidin-2-yl)methoxy)-3-(naphthalen-1-yl)pyrimido[5,4-d]pyrimidin-4(3H)-one]: 4.28; for `C=CC(=O)N1CCN(c2nc(OC[C@@H]3CCCN3C)nc3c(=O)n(-c4cccc5ccccc45)c(CC)nc23)C[C@@H]1CC#N` [Compound 14, 2-((S)-1-acryloyl-4-(6-ethyl-2-(((S)-1-methylpyrrolidin-2-yl)methoxy)-7-(naphthalen-1-yl)-8-oxo-7,8-dihydropyrimido[5,4-d]pyrimidin-4-yl)piperazin-2-yl)acetonitrile]: 6.07.

(Values after US20230212170A1, “INHIBITORS OF KRAS G12C PROTEIN AND USES THEREOF” (SHANGHAI ANTENGENE CORPORATION LIMITED, priority 2020, published 2023).)
